In assay [1] the target is T1, Human DNA Polymerase Pol Gamma (Homo sapiens, UniProt P54098).
T1 construct: made in house
T1 sequence (P54098 26-1239 limits assumed): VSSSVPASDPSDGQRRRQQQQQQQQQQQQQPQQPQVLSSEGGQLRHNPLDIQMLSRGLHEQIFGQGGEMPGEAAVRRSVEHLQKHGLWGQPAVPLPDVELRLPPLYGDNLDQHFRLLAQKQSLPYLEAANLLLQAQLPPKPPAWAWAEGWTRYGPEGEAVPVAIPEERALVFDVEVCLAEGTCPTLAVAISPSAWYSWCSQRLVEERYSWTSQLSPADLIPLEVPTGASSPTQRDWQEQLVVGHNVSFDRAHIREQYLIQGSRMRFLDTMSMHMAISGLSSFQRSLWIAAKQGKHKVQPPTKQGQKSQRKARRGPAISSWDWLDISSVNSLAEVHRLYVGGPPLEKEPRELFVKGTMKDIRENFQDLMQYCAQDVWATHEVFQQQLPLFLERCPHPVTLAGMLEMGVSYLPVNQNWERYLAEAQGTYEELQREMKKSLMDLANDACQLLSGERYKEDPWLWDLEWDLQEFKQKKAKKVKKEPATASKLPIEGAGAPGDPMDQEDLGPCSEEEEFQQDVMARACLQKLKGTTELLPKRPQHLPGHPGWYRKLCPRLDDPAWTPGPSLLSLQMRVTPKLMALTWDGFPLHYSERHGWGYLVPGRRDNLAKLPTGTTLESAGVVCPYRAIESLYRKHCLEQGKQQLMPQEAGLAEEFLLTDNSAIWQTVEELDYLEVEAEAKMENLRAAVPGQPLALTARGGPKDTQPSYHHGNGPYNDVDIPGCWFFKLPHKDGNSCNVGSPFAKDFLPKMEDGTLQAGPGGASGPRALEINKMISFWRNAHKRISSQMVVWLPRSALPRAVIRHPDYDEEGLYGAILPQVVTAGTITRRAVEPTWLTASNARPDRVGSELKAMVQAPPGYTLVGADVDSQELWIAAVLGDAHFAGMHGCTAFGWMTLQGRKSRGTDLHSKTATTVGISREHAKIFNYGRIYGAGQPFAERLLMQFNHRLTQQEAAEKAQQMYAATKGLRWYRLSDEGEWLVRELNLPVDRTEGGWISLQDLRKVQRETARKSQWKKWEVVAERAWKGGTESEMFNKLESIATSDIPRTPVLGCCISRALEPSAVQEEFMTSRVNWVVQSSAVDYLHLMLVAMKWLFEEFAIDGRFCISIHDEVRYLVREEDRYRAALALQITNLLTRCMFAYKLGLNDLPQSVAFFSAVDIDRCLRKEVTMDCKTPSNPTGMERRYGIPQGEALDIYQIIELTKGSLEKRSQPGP
T1 sequence (Q9UHN1 26-485 partner limits assumed): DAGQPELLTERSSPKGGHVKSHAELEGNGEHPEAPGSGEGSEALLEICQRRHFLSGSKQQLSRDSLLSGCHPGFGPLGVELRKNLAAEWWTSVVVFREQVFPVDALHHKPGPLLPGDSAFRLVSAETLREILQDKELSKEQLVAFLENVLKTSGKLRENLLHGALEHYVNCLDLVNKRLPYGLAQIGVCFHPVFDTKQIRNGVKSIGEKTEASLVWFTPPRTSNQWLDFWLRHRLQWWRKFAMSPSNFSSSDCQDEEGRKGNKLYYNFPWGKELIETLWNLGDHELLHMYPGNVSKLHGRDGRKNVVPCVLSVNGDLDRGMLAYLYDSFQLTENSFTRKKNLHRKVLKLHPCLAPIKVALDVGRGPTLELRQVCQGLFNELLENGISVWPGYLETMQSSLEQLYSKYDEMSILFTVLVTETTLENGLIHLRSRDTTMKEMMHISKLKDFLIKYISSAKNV
The experiment in a line: Inhibition of Human DNA Polymerase Gamma. Format: biochemical.

For assay [2], the target named is Human DNA Polymerase Pol Beta (Homo sapiens, UniProt P06746). The experiment in a line: Inhibition of Human DNA Polymerase Beta. Format: biochemical.

What is called IC50 is the concentration that gives 50% inhibition.

On to `Cc1cn([C@H]2CC[C@@H](COP(=O)(O)OP(=O)(O)OP(=O)(O)O)O2)c(=O)[nH]c1=O` [ddTTP], for which the IC50 in assay [1] was found to be 43 µM; in assay [2], 18 µM.

These data come from US20170037078A1, “2' -DIS[…] FOR TREATMENT OF THE FL[…] OF VIRUSES AND CANCER” (Cocrystal Pharma, Inc., priority 2014, published 2017).
